Converted amounts (≈) assume the structure as drawn.
Assays:
Rattus norvegicus = conditions: for LD50: acute, mortality
Canidae = conditions: oral, Dog Other, histopathology: nonneoplastic
Anas platyrhynchos = conditions: short-term; oral; feed; mortality
Colinus virginianus = conditions: acute, oral, mortality
Oncorhynchus mykiss = conditions: acute; duration: 96 hours; mortality

SMILES	LD50 (Rattus norvegicus; oral)	NOAEL (Rattus norvegicus; chronic, duration: 2 years, histopathology: nonneoplastic)	NOAEL (Rattus norvegicus; developmental, oral, gavage, development)	NOAEL (Canidae; chronic, duration: 1 years, capsule)	LC50 (Anas platyrhynchos)	LC50 (Colinus virginianus; diet)	LD50 (Colinus virginianus)	NOAEL (Rattus norvegicus; chronic, duration: 104 weeks, oral, drinking water, histopathology: nonneoplastic)	NOAEL (Rattus norvegicus; reproduction developmental)	NOAEL (Canidae; subchronic, duration: 90 days, gavage)	LC50 (Oncorhynchus mykiss)
CNC(=S)[S-].[Na+] [Metam-sodium]	896 mg/kg-day	1.5 mg/kg-day	5 mg/kg-day	0.1 mg/kg-day	> 324 mg/kg-day	> 448 mg/kg-day	211 mg/kg-day				
CN=C=S [Methyl isothiocyanate]	147 mg/kg-day							0.44 mg/kg-day	3 mg/kg-day	0.4 mg/kg-day	0.0531 mg/L (≈ 0.726 µM)
